In PubChem BioAssay (NCI) one finds TGI and GI50 data, which are given here for 19 molecules.

Where “and” joins values, the source holds several entries; their conditions need not be identical. Identical values can stand only once.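 In this assay, cells in 96-well plates receive the compound at five concentrations for 48 hours. Endpoints are linearly interpolated between the surrounding concentrations. GI50 = concentration required for 50% inhibition of growth. TGI: total growth inhibition.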 Where only a bound is given, the exact number is not on record here.

Test systems include ACHN renal; BT-549 breast; MALME-3M melanoma; NCI-H226 lung; NCI-H460 lung; OVCAR-3 ovarian; OVCAR-5 ovarian; SNB-19 CNS; U251 CNS; CCRF-CEM leukemia.
What all share (test): NCI tumour cell line growth inhibition, 48 h

Turning to `O=C(NC1(C(=O)NNc2nnc(-c3ccccc3)c(-c3ccccc3)n2)C(c2ccccc2)C(c2ccccc2)=NN1c1ccccc1)c1ccccc1` (stereo not given), the TGI with ACHN renal, in the test on BT-549 breast, in the test with MALME-3M melanoma, in the test on NCI-H226 lung, in the test on NCI-H460 lung and with OVCAR-3 ovarian was above 100 µM each time. Further, the TGI in the test with OVCAR-5 ovarian, in the test with SNB-19 CNS and in the test with U251 CNS was above 100 µM throughout.

For the molecule `COc1ccc(/C=C(\C(=C/c2ccc(OC)cc2)[N+](=O)[O-])[N+](=O)[O-])cc1`, the TGI in the test with ACHN renal was determined as 17.1 µM; with BT-549 breast, 21.4 µM; in the test on MALME-3M melanoma, 11.9 µM; with NCI-H226 lung it was 33 µM; in the test on NCI-H460 lung it was 12.2 µM; in the test on OVCAR-3 ovarian it was 71.4 µM. In addition, the TGI in the test with OVCAR-5 ovarian was 35.4 µM; in the test on SNB-19 CNS, 30.2 µM; in the test with U251 CNS, 8.52 µM.

`S=c1nc2[nH]c3ccc(Br)cc3c2n[nH]1`: the TGI in the test with BT-549 breast, with MALME-3M melanoma, in the test with NCI-H226 lung, with NCI-H460 lung, in the test on OVCAR-3 ovarian and with OVCAR-5 ovarian was above 100 µM each time. Also, the TGI in the test on SNB-19 CNS and with U251 CNS was above 100 µM in each case.

Take `Fc1ccc(C2CC(c3cccc(Nc4ccncc4)c3)=NN2c2cc(Cl)cc(Cl)c2)cc1` (stereo not given): the GI50 in the test on ACHN renal was 1.66 µM; in the test on BT-549 breast it was 1.88 µM; with CCRF-CEM leukemia, 2.9 µM; in the test with MALME-3M melanoma, 1.72 µM; with NCI-H460 lung, 1.87 µM; in the test with OVCAR-3 ovarian it was 1.8 µM. Also, the GI50 in the test with OVCAR-5 ovarian was 1.73 µM; in the test with SNB-19 CNS, 1.74 µM. Also, the TGI in the test on ACHN renal is 3.02 µM; with BT-549 breast it was 3.63 µM; in the test with CCRF-CEM leukemia, above 100 µM; in the test on MALME-3M melanoma, 3.41 µM; in the test on NCI-H460 lung, 3.55 µM; in the test on OVCAR-3 ovarian, 3.32 µM. Besides, the TGI was 3.16 µM in the test on OVCAR-5 ovarian and 3.32 µM in the test with SNB-19 CNS.

With `Cc1cn(CC2=NCCCN2)c(=O)[nH]c1=O`, the TGI in the test on ACHN renal, in the test on BT-549 breast, in the test with CCRF-CEM leukemia, in the test with MALME-3M melanoma, in the test with NCI-H226 lung and in the test on NCI-H460 lung was above 100 µM each time. Further, the TGI in the test with OVCAR-5 ovarian, with SNB-19 CNS and in the test on U251 CNS was above 100 µM throughout.

Regarding `Cn1c(-c2ccc[se]2)ccc1-c1ccc(CO)[se]1`, the TGI in the test with ACHN renal was above 71.5 µM; in the test with BT-549 breast it was above 100 µM; with CCRF-CEM leukemia, above 100 µM; in the test with MALME-3M melanoma, 40.4 µM; with NCI-H226 lung, 0.884 µM; in the test with NCI-H460 lung it was 18.8 µM. Moreover, the TGI is above 100 µM with SNB-19 CNS and 15.8 µM with U251 CNS.

`CCCn1c(=O)c2ccccc2[n+]2c(-c3ccc([N+](=O)[O-])cc3)csc12`: the TGI is above 100 µM in the test on ACHN renal; above 100 µM in the test with BT-549 breast; 82.5 µM in the test on CCRF-CEM leukemia; above 100 µM with NCI-H226 lung; above 100 µM in the test with NCI-H460 lung; above 100 µM in the test on OVCAR-5 ovarian. Besides, the TGI with SNB-19 CNS and in the test with U251 CNS was above 100 µM in each case.

In the case of `O=C1CSC2=NCC3(NN12)c1ccccc1-c1ccccc13`, the TGI with ACHN renal, with BT-549 breast, with CCRF-CEM leukemia, with MALME-3M melanoma, in the test with NCI-H226 lung and with NCI-H460 lung was above 10 µM each time. In the test with SNB-19 CNS, this molecule displayed a TGI above 10 µM.

As to `CC(=Nc1c2ccccc2nc2ccccc12)N(C)C`, the TGI in the test on ACHN renal is 76.4 µM; with BT-549 breast, 90.7 µM; with CCRF-CEM leukemia, above 100 µM; in the test on MALME-3M melanoma, above 100 µM; in the test on NCI-H226 lung, 45.7 µM; with OVCAR-3 ovarian, 46.5 µM. Further, the TGI was above 100 µM in the test with OVCAR-5 ovarian, above 100 µM with SNB-19 CNS and 72 µM in the test with U251 CNS.

For `CCN(CC)C(=S)N/N=C/c1ccccn1`, the TGI in the test with ACHN renal was 10.1 µM; with BT-549 breast, above 100 µM; in the test with CCRF-CEM leukemia, above 100 µM; in the test with MALME-3M melanoma, above 100 µM; in the test with NCI-H226 lung, 0.989 µM; with OVCAR-3 ovarian, 11 µM. Further, the TGI in the test with OVCAR-5 ovarian, with SNB-19 CNS and in the test with U251 CNS was above 100 µM throughout.

On to `CC(C)(C)OC(=O)NC(Cc1ccc(O)cn1)C(N)=O` (stereo not given), for which the TGI in the test with ACHN renal, with BT-549 breast, in the test with MALME-3M melanoma, with NCI-H226 lung, with NCI-H460 lung and in the test with OVCAR-3 ovarian was above 100 µM throughout. The TGI in the test with OVCAR-5 ovarian, in the test with SNB-19 CNS and with U251 CNS was above 100 µM in each case.

In the case of `Cc1ccc(S(=O)(=O)NC(=O)NCCC(=O)O)cc1`, the TGI in the test with ACHN renal, in the test on BT-549 breast, in the test with CCRF-CEM leukemia, with MALME-3M melanoma, in the test with NCI-H460 lung and in the test on OVCAR-5 ovarian was above 100 µM in each case. For the same molecule, the TGI in the test on SNB-19 CNS and in the test on U251 CNS was above 100 µM each time.

In the case of `Cc1cccc2nc3cccc(C(=O)NCCC[N+](C)(CCCNC(=O)c4cccc5nc6cccc(C)c6nc45)Cc4c([N+](=O)[O-])ncn4C)c3nc12`, the GI50 in the test with ACHN renal was 3.59 µM; in the test with MALME-3M melanoma, 26.2 µM; in the test on NCI-H226 lung, 0.11 µM; in the test on NCI-H460 lung it was 2.15 µM; in the test with U251 CNS, 18.2 µM. Also, the TGI was above 1100 µM in the test on ACHN renal; above 1100 µM in the test on BT-549 breast; above 1100 µM with CCRF-CEM leukemia; 432 µM in the test on MALME-3M melanoma; 267 µM in the test with NCI-H226 lung; 257 µM in the test on NCI-H460 lung. The TGI in the test on OVCAR-3 ovarian, in the test with SNB-19 CNS and with U251 CNS was above 1100 µM throughout.

`O=C1C=C2CO[C@H]3OC[C@H](O)[C@@H]1[C@@H]23`: the TGI was above 100 µM in the test with ACHN renal; above 100 µM in the test on BT-549 breast; 66.8 µM in the test with CCRF-CEM leukemia; 55 µM in the test on MALME-3M melanoma; above 100 µM in the test with NCI-H460 lung; above 100 µM in the test on OVCAR-3 ovarian. Further, the TGI was above 100 µM in the test on OVCAR-5 ovarian, above 100 µM in the test with SNB-19 CNS and 63.6 µM in the test with U251 CNS.

Regarding `CC(C)[C@H]1NC(=O)[C@H]2N=C(O[C@@H]2C)[C@@H]2CCCN2C(=O)[C@H](Cc2ccccc2)NC(=O)[C@@H]2CSC(=N2)[C@@H](Cc2ccccc2)NC(=O)[C@@H]2CSC1=N2`, the TGI with ACHN renal, in the test with BT-549 breast, in the test with CCRF-CEM leukemia, in the test with MALME-3M melanoma, with NCI-H226 lung and in the test on OVCAR-3 ovarian was above 100 µM throughout. Also, the TGI in the test with OVCAR-5 ovarian, with SNB-19 CNS and in the test with U251 CNS was above 100 µM throughout.

On to `Nc1ccccc1NC(=O)CCCCCCC(=O)Nc1ccc2c(c1)/C(=C/c1ccc[nH]1)C(=O)N2`, for which the GI50 in the test on ACHN renal was 15.1 µM; in the test with BT-549 breast, 0.391 µM; in the test on CCRF-CEM leukemia it was 0.419 µM; in the test on MALME-3M melanoma, 6.2 µM; with NCI-H460 lung, 22.4 µM; with OVCAR-3 ovarian, 5.42 µM. Also, the results for the GI50 in the test with OVCAR-5 ovarian, with SNB-19 CNS and in the test with U251 CNS were above 100 µM, above 100 µM and 1.08 µM, respectively. Further, the TGI in the test on ACHN renal, with BT-549 breast, in the test on CCRF-CEM leukemia, with MALME-3M melanoma, with NCI-H460 lung and in the test on OVCAR-3 ovarian was above 100 µM each time. For the same molecule, the TGI in the test with OVCAR-5 ovarian, in the test on SNB-19 CNS and in the test with U251 CNS was above 100 µM throughout.

`Cc1nccn1S(=O)(=O)c1ccc(Br)cc1Br`: the TGI is above 100 µM in the test with ACHN renal; above 100 µM in the test on BT-549 breast; 98.3 µM in the test on CCRF-CEM leukemia; above 100 µM in the test with MALME-3M melanoma; above 100 µM with NCI-H460 lung; 55.4 µM in the test on OVCAR-3 ovarian. Also, the values for the TGI in the test with OVCAR-5 ovarian, in the test on SNB-19 CNS and in the test with U251 CNS were above 100 µM, 90.3 µM and above 100 µM, respectively.

Take `CN(C)CCCNc1c2ccccc2nc2cccc([N+](=O)[O-])c12`: the TGI in the test with BT-549 breast is 0.0151 µM; in the test on CCRF-CEM leukemia it was 0.196 µM; in the test on MALME-3M melanoma it was 0.00221 µM and 0.0136 µM; with NCI-H226 lung it was 0.0589 µM and 0.0601 µM; in the test on NCI-H460 lung, 0.00781 µM; in the test with OVCAR-3 ovarian, 0.0673 µM. Moreover, the TGI in the test with OVCAR-5 ovarian was 0.0214 µM and 0.0509 µM; in the test on SNB-19 CNS, 0.0171 µM and 0.142 µM; with U251 CNS, 0.0143 µM. In addition, the GI50 is 0.029 µM in the test on CCRF-CEM leukemia, 0.0196 µM in the test with NCI-H226 lung, 0.0197 µM in the test with OVCAR-5 ovarian and 0.0303 µM in the test on SNB-19 CNS.

As to `CCOC(=O)c1c2c(n3ccc(NC(=O)OC(C)(C)C)cc13)C(=O)c1ncccc1C2=O`, the GI50 was 0.179 µM with BT-549 breast; 0.0997 µM in the test on MALME-3M melanoma; 0.174 µM in the test with NCI-H226 lung; 0.0273 µM with NCI-H460 lung; 0.0971 µM in the test with OVCAR-5 ovarian; 0.159 µM in the test with SNB-19 CNS. Moreover, in the test on U251 CNS, the GI50 is 0.0465 µM. The TGI worked out at 2.02 µM in the test on BT-549 breast; 1.27 µM in the test with MALME-3M melanoma; 0.757 µM in the test on NCI-H226 lung; 0.123 µM with NCI-H460 lung; 1.65 µM in the test with OVCAR-5 ovarian; 1.36 µM with SNB-19 CNS. In addition, the TGI in the test on U251 CNS worked out at 1.25 µM.
